In patent US12497359B2, “Acrylamide derivatives” (NRG Therapeutics Ltd, priority 2020, dated 2025):
≈ marks a conversion by molar mass, not a printed value.

Assays:
PBS solubility = assay type: physicochemical; details: aqueous buffer, kinetic from dmso stock; PBS pH 7.4, 2 hr at 25° C.
Summary of the method: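 Compound from 10 mM DMSO stock was added in duplicate to FaSSIF or PBS (pH 7.4) and shaken at 1100 rpm for 2 hr at 25 °C. After filtration, the filtrate was quantified by LC-MS/MS with internal standard against a standard of known concentration.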

[1] = Hepatocyte clearance assay, rat; assay type: in vitro ADME; details: cryopreserved primary rat hepatocytes, average value from two experiments, read-out: Rat heps intrinsic clearance (CLint)
Summary of the method: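 Cryopreserved rat or human hepatocytes at 0.5×10^6 viable cells/mL in L-15 medium, compound incubated at 37° C. with sampling to 120 min, in duplicate; parent remaining by LC/MS/MS. Half-life from ln(% remaining) vs time slope; CLint (μL/min/1×10^6 cells) = kV/N, V 0.2 mL, N 0.1×10^6 cells.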

[2] = Microsomal clearance assay, rat liver microsomes; assay type: in vitro ADME; details: average value from two experiments, read-out: Rat liver microsomes intrinsic clearance (CLint)
Protocol: The microsomal stability of test compounds was evaluated using rat liver microsomes (BioIVT) with and without the cofactors nicotinamide adenine dinucleotide phosphate (NADPH) and uridine-diphosphate-glucuronic acid (UDPGA). Reactions were performed in a final volume of 250 μl pre-warmed (37° C.) 100 mM phosphate buffer containing 5 mM MgCl2, 0.025 mg/ml alamethicin, and 0.5 mg/ml rat liver microsomes. NADPH and UDPGA were included at 1 mM and 2 mM respectively, where appropriate. Reactions were started with the addition of 1 μM (final concentration) test compound. Verapamil was used as the positive control. Solutions were incubated in a water bath at 37° C. and aliquots collected at 0.5, 5, 15, 30 and 60 min. Reactions were stopped by the addition of 5 volumes of cold acetonitrile with internal standards (200 nM caffeine and 100 nM tolbutamide). Samples were centrifuged at 3220 g for 40 min. An aliquot of supernatant was diluted 1:1 In ultra-pure H20, then used for LC-MS/MS analysis. Peak areas were determined from extracted ion chromatograms. The slope value, k, was determined by linear regression of the natural logarithm of the remaining percentage of the parent drug vs. incubation time curve. The in vitro half-life (in vitro t1/2) was determined from the slope value: in vitro t1/2=0.693/k. Conversion of the in vitro t1/2 (min) into the in vitro intrinsic clearance (in vitro CLint, in μL/min/mg protein) was done using the following equation (mean of duplicate determinations): in vitro Clint=(0.693/t1/2)*(Vol of incubation (μl)/amount of protein (mg)).

SMILES	solubility at 2 h (PBS solubility) [µM]	hepatocyte CLint at 1 µM [1] [µL/min/1e6 cells]	microsomal CLint at 1 µM [2] [µL/min/mg]
C[C@H]1Cc2ccccc2[C@@H]1NC(=O)/C=C/c1ccc2cn[nH]c2c1 (single isomer, unassigned) [Example 14c]	0.6 (≈ 0.19 µg/mL)	48	
C[C@@H]1COc2ccccc2[C@@H]1NC(=O)/C=C/c1ccc2cn[nH]c2c1 (single isomer, unassigned) [Example 15d, (E)-3-(1H-indazol-6-yl)-N-(3-methylchroman-4-yl)acrylamide]	2 (≈ 0.667 µg/mL)		< 3
O=C(/C=C/c1ccc2cn[nH]c2c1)N[C@@H]1CCc2ccccc21 [Example 3, (R,E)-N-(2,3-dihydro-1H-inden-1-yl)-3-(1H-indazol-6-yl)acrylamide]	2.2 (≈ 0.667 µg/mL)	28	52
COCc1ccccc1NC(=O)/C=C/c1ccc2cn[nH]c2c1 [Example 29, (E)-3-(1H-indazol-6-yl)-N-(2-(methoxymethyl)phenyl)acrylamide]	29 (≈ 8.91 µg/mL)	10	10
